Results taken from patent US20080081826A1, “SYSTEM FOR EFFECTING WEIGHT LOSS” (priority 2006, published 2008).

Assays:
[1] = system: gastric and pancreatic lipase; conditions: literature; cited from earlier work
[2] = Clinical weight loss studies (historical) in overweight or obese patients, 12 or 24 weeks; type: in vivo, human patients; conditions: no meal replacement
Procedure: To conduct the studies, patients who were diagnosed as overweight or obese were chosen for clinical trials to assess weight loss as a function of prescribed meal replacements or a weight loss agent (sibutramine). Co-administration of both a weight loss agent and meal replacement was also tested.
All patients received lifestyle modification training of either a moderate (data Groups 1-9, 11, and 12) or intensive (data Group 10) character which included a patient's participation in record keeping, professional consultation, and exercise in addition to the dietary protocol. Patients placed on a “Moderate” lifestyle management program were given a diet sheet with instructions for a defined intake of daily calories ranging from 800-1600 kcal, or a 600 kcal deficit diet, with or without exercise and routine visits with the Primary Care Provider to reinforce diet and behavior modification, but relying primarily on patient self-monitoring. Patients placed on an “Intensive” lifestyle management program were given a diet sheet with a defined intake of daily calories ranging from 800-1600 kcal, or a 600 kcal deficit diet, with meals recorded in a food diary, and were provided with ongoing diet counseling and caloric adjustment according to weight loss “Intensive” patients were also given defined minimal weekly requirements for exercise and instructed to record their activities in an exercise diary that was then collected and reviewed by the Primary Care Provider. The Intensive program also included routine visits throughout the course of the study with a Dietitian and the Primary Care Provider in order to reinforce diet and behavior modification.
Patients in some groups (see Table 2, data Groups 2, 11, and 12) utilized meal replacement formulations. These individuals were given a diet sheet with a defined intake of daily calories ranging from 800-1600 kcal, or a 600 kcal deficit diet, with a meal replacement formulation taken once or twice daily instead of a food meal, and routine visits with a Primary Care Provider to reinforce diet and behavior modification, but relying primarily on patient self-monitoring.
The remainder of the patients (see Table 2, data Groups 3-11) also received daily doses of sibutramine at 10 mg/day (data Groups 3-7 and 11) or 15 mg/day (data Groups 8, 9, and 12). Individuals in data Groups 11 and 12 were given a diet sheet with a defined intake of daily calories ranging from 800-1600 kcal, or a 600 kcal deficit diet, with a meal replacement formulation (SlimFast®) taken once or twice daily instead of a food meal where applicable (see Table 2), and routine visits with a Primary Care Provider to reinforce diet and behavior modification, but relying primarily on patient self-monitoring. Patients in data Group 10 were placed on a 10 mg/day sibutramine and “Intensive” life style management regimen with no meal replacement.
In each of the studies, patients were monitored for weight loss over a 12- or 24-week period. The data groups ranged in size from 17 to 592 patients, and were placed on either a conventional diet with moderate lifestyle management program (data Group 1), or a diet including a meal replacement component including substitution of either one or two meals per day with a meal replacement formulation, as part of a moderate lifestyle management (data Group 2), or a conventional diet plus one daily dose of sibutramine (10 mg) with a moderate or intensive lifestyle management (data Groups 3-7 and 10), a conventional diet plus one daily dose of sibutramine (15 mg) with moderate lifestyle management (data Groups 8 and 9), and finally, a diet with one or two meal replacements (SlimFast®) plus one daily dose of sibutramine (10 mg) and moderate lifestyle management (data Group 11) or a diet with one or two meal replacements (SlimFast®) plus one daily dose of sibutramine (10 mg for 12 weeks followed by 15 mg for 12 weeks) (data Group 12).
All subjects received moderate or intensive lifestyle management training. […]

[3] = data Groups 8 and 9: 15 mg sibutramine + moderate lifestyle management, 24 weeks

Row | SMILES | fraction of the fat contained in a meal whose absorption is blocked [1] | Mean Weight Change (kg) (LOCF*) ([2]; data Group 3: sibutramine 10 mg/day, moderate lifestyle management, 12 weeks) | weight loss (lower end of range, sibutramine only) ([2]; data Group 3 as worded in text: 10 mg sibutramine/day + moderate lifestyle management, latest observation to week 12) [kg] | Mean Weight Change (kg) (LOCF*) ([2]; data Group 4: sibutramine 10 mg/day, moderate lifestyle management, 12 weeks) | mean weight loss ([2]; data Group 5: 10 mg/day sibutramine + moderate lifestyle management, latest observation to week 12) [kg] | Mean Weight Change (kg) (LOCF*) ([2]; data Group 5: sibutramine 10 mg/day, moderate lifestyle management, 12 weeks) | Mean Weight Change (kg) (LOCF*) ([2]; data Group 6: sibutramine 10 mg/day, moderate lifestyle management, 12 weeks) | Mean Weight Change (kg) (LOCF*) ([2]; data Group 7: sibutramine 10 mg/day, moderate lifestyle management, 12 weeks) | Mean Weight Change (kg) (LOCF*) ([2]; data Group 8: sibutramine 15 mg/day, moderate lifestyle management, 24 weeks) | Mean Weight Change (kg) (LOCF*) ([2]; data Group 9: sibutramine 15 mg/day, moderate lifestyle management, 24 weeks) | weight loss (upper end of range, sibutramine only) ([2]; data Group 10: 10 mg sibutramine/day + intensive lifestyle management, latest observation to week 12) [kg] | Mean Weight Change (kg) (LOCF*) ([2]; data Group 10: sibutramine 10 mg/day, intensive lifestyle management, 12 weeks) | overall average weight loss of all groups ([2]; data Groups 3-7: 10 mg/day sibutramine, moderate lifestyle management, 12 weeks) [kg] | average weight loss [2, 3] [kg] | improvement of average weight loss by the higher 15 mg dose [2, 3]
1 | CCCCCCCCCCC[C@H](C[C@H]1OC(=O)[C@H]1CCCCCC)OC(=O)[C@@H](CC(C)C)NC=O [orlistat, (2S,3S,5S)-5-[(S)-2-formamido-4-methylvaleryloxy]-2-hexyl-3-hydroxyhexadecanoic acid lactone] | about one third | – | – | – | – | – | – | – | – | – | – | – | – | – | –
2 | CC(C)CC(N(C)C)C1(c2ccc(Cl)cc2)CCC1 (stereo not drawn) [sibutramine, N,N-dimethyl-1-[1-(4-chlorophenyl)cyclobutyl]-3-methylbutylamine] | – | -3.9 | 3.7 | -6.2 | 3.7 | -3.7 | -5 | -4.2 | -6.4 | -5.6 | 8.4 | -8.4 | 4.6 | 6.0 | approximately 25%
